Experimental data from patent publication US6548527B2, “Treatments for immune-mediated ear disorders” (The General Hospital Corporation, priority 2000, dated 2003).

Experiments:
Type in all cases: in vivo, human
[1] = system: patients with progressive IMCVD; assay: Etanercept treatment of twelve patients with progressive IMCVD (25 mg subcutaneous injection twice a week)
Excerpt: Study subjects were suspected of having IMCVDs mainly based on (1) the presence of bilateral sensorineural healing loss or typical symptoms of Meniere's disease with a recent progressive decline, (2) a clear response to high dose prednisone therapy, and/or (3) the presence of anti-HSP70 antibodies. Reasons for attempting etanercept therapy in these study patients included: (a) failure of conventional treatments in seven, (b) side effects of conventional treatment in three, (c) the need for corticosteroid sparing agent with a quick onset of action given intolerable corticosteroid side effects and rapidly progressive worsening of hearing in three, and (d) the patient's wish to avoid conventional agents in two given their known side effects of sub-optimal efficacy profile.
Of the 12 patients, six (50%) were women. The mean age was 47 (range, 24 to 71), and the mean duration of disease prior to the etanercept therapy was 13 years (range, 2 to 25 years). All 12 patients had both ears involved, 2 had predominantly one ear involvement with good hearing in the contralateral ear, 4 had significant loss of hearing in both ears, and 6 had lost all functional hearing in one ear and were treated with etanercept for a recent progressive decline of the remaining hearing. […] Patient # 9 had symmetric polyarthralgia, morning stiffness without documented synovitis, negative rheumatoid factor and positive anti-nuclear antibodies. Four of the 10 patients who were tested had antibodies to HSP70. Previous anti-rheumatic treatments included methotrexate in five, cyclophosphamide (CYTOXAN) in two, hydroxycholoquine in one, and chlorambucil in one. All patients received a trial of diuretics and sodium-restricted diet. Two of the patients had hypertension, one had diet-controlled diabetes mellitus, one had hyperlipidemia, and one had hypothyroidism.
Etanercept was started while the patients were on high dose prednisone (except in 2 cases, who were already off prednisone because of intolerable side-effects). The prednisone dose was then tapered off over 2 to 6 weeks (except in 2 cases) depending on disease severity, response to prednisone, and the severity of side effects of prednisone. The mean duration of the etanercept treatment in the 12 patients was 7 months (82 patient-months; range, 5 to 10 months) and mean follow-up from the start date of etanercept therapy was 8 months (range: 5.66 to 12 months). Seven of the twelve patients were still on etanercept at the end of study period (mean duration of 7 months) and the remaining five discontinued the drug. Four patients discontinued the drug at the end of the target period (6 months), and one patient was switched to infliximab (Remicade™), another TNF-receptor blocker for less than desired benefit from etanercept (duration 9 months). A criteria of prednisone response was based on improvements in hearing, vertigo, and equilibrium, as previously published by Sismanis et al. (Otolaryngology—Head and Neck Surgery 116(2): 146-52, 1997).
The main outcome measurement was improvement or stabilization of hearing by air conduction pure tone audiograms and/or by word discrimination scores. A slightly modified version of improvement criteria which was previously used to evaluate the efficacy of glucocorticoids was employed for IMCVDs: >15 dB at one frequency, 10 dB at two or more consecutive frequencies, or 15% increase in word discrimination scores (Sismanis et al., supra; Rauch, Annals of the New York Academy of Sciences 830:203-210, 1997). The audiogram before initiation of etanercept was compared with the most recent audiogram. When present, vertigo, tinnitus, and fullness were assessed using a 3-level response scale: better, no change, and worse. Outcomes were based on measurements at the farthest follow-up from the initiation of etanercept or at the declaration of no improvement in hearing by etanercept therapy, whichever came first. More than a 5-month follow-up was available for all patients (range: 5-12 months) […]

patients with IMCVD [2] = assay: Initial trials of leflunomide in patients with IMCVD (20 mg orally every day); conditions: of 3 patients, 5-6 month or 1-year regimen
patients with IMCVD [3] = assay: Two other separate trials of etanercept in additional IMCVD patients
patients with IMCVD [4] = assay: Infliximab trial in patients with IMCVD (3 mg/kg intravenous infusion every two months); conditions: of 3 patients; 3 mg/kg i.v. infusion every two months, at least 6 months
Procedure: In addition to etanercept, another TNF antagonist, infliximab, was also tested for efficacy. In this trial, 3 patients with IMCVD were treated with 3 mg/kg body weight of Remicade™ by intravenous infusion every two months. Treatment was continued for at least 6 months, and the patients were monitored.

[5] = single patient #1 on etanercept

Compound: Cc1oncc1C(=O)Nc1ccc(C(F)(F)F)cc1 [leflunomide, N-(4′-trifluoromethylphenyl)-5-methylisoxazole-4-carboxamide]
- overall hearing after leflunomide was later added, patient #8 ([1]; single patient #8, leflunomide added to etanercept): did not make any difference
- hearing outcome after addition of leflunomide to etanercept, patient #11 ([1]; single patient #11, leflunomide added to etanercept after deterioration): rescued and stabilized
- patients exhibiting positive results (patients with IMCVD [2]): 2 patients

Compound: etanercept
- patients who had aural fullness with resolution or significant improvement of symptoms ([1]; 8 out of 9 patients who had aural fullness): 89%
- patients on prednisone able to taper off prednisone without affecting their hearing ([1]; 10 patients on variable doses of prednisone to maintain hearing, after starting etanercept): Eight of the 10
- patients with improvement or stabilization of hearing and tinnitus ([1]; 11 out of 12 patients, 25 mg s.c. twice a week, follow-up 5-12 months): 92%
- adverse reactions ([1]; 12 patients, 25 mg s.c. twice a week): no adverse reactions except for mild transient injection-site reactions in a few patients
- patients who had vertigo with resolution or significant improvement of symptoms ([1]; Seven out of 8 patients who had vertigo): 88%
- side effects during the follow-up period ([1]; follow-up period): no appreciable side effects
- persistence of benefit until the last visit, time after starting etanercept ([1]; human, in vivo): 5 to 12 months
- hearing fluctuation, tinnitus, aural fullness and vertigo, patient #1 [1, 5]: the fluctuation stabilized and their tinnitus, aura fullness, and vertigo resolved
- overall hearing, patient #1 [1, 5]: did not have any significant improvement
- tinnitus and vertigo after switching to etanercept, patient #8 ([1]; single patient #8): improvement
- hearing outcome, patient #8 switched to etanercept ([1]; single patient #8, previously losing hearing on methotrexate and chlorambucil): stabilized their hearing after being switched to etanercept but at a lower level than their baseline
- hearing outcome, patient #11 on etanercept ([1]; single patient #11): initial dramatic improvement after starting etanercept but deteriorated after 5 months
- patients who experienced improvement in tinnitus, aural fullness, and vertigo ([1]; summary of 12 patients): approximately 90%
- patients who stabilized their rapidly progressing hearing loss ([1]; summary of 12 patients): 33%
- patients with remarkable improvement of hearing ([1]; summary of 12 patients): 58%
- patients showing positive outcomes (patients with IMCVD [3]; in sum, out of 18 patients with IMCVD treated with etanercept (all trials)): 16 patients
- outcome of IMCVD symptoms in additional patients (patients with IMCVD [3]; six additional patients in two other separate trials): all showed improvement or stabilization of IMCVD symptoms

Compound: infliximab: chimeric monoclonal antibody that binds to TNF-α, marketed as Remicade
- hearing after switch from etanercept to infliximab, patient #11 ([1]; single patient #11, switched after 9 months on etanercept): remained unchanged
- patients exhibiting positive results (patients with IMCVD [4]): 3 patients
